In PubChem BioAssay (NCI):
“And” between values parts separate entries of the source, which are not always exact repeats. Identical values can stand only once.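 Cultured in 96-well plates, cells were exposed to test compound for 48 hours across five concentrations. At the GI50, growth is halved. TGI: concentration producing complete growth inhibition.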

Test system: MDA-MB-468 breast
Assay: NCI tumour cell line growth inhibition, 48 h

Row | Structure (SMILES) | GI50 | TGI
1 | C=C1C(=O)O[C@H]2[C@H]1CC/C(COC(=O)c1cc3ccccc3s1)=C\CC[C@@]1(C)O[C@@H]21 | 1.63 µM | 3.95 µM
2 | CON(C)C(=O)N1N=C(c2cc(F)ccc2F)SC1(CCCN)c1ccccc1 (stereo not drawn) | < 0.01 µM | 1.57 µM and 0.456 µM
3 | CC[CH2][Sn]([Cl])([Cl])[CH2]CC.Oc1ccccc1C=NCCN=Cc1ccccc1O | 1.51 µM | 3.27 µM
4 | Cc1cc(O)c(C(C)(C)C)cc1Sc1cc(C(C)(C)C)c(O)cc1C | 2.09 µM | 5.12 µM
5 | COc1ncc(-c2ccc3ncnc(Nc4cccc(Cl)c4)c3c2)cc1NS(=O)(=O)CCN1CCOCC1 | < 0.01 µM | 0.437 µM
6 | O=C(/C=C\n1cnc(-c2cc(C(F)(F)F)cc(C(F)(F)F)c2)n1)NNc1cnccn1 | 0.0923 µM | 0.657 µM
7 | COC(=O)c1c(C)[nH]c(/C=C2\N=C(c3ccc[nH]3)C=C2OC)c1C | 1.2 µM | 2.73 µM
8 | Fc1ccc(-c2nn3ncccc3c2-c2ccnc(Nc3ccc4c(c3)OCCO4)n2)cc1 | 0.624 µM | 3.24 µM
9 | COC(=O)[C@H](Cc1c[nH]c2ccccc12)NC(=O)[C@@H](OC)[C@@H]1Cc2cc3cc(OC4CC(OC5CC(O)C(O)C(C)O5)C(O)C(C)O4)c(C)c(O)c3c(O)c2C(=O)[C@H]1OC1CC(OC2CC(OC3CC(C)(O)C(O)C(C)O3)C(O)C(C)O2)C(O)C(C)O1 (stereo partly drawn) | 0.00321 µM | 0.011 µM
10 | COc1ccc2nc3cc(Cl)ccc3c(NCCN)c2c1 | 1.84 µM | 3.79 µM
11 | COc1cc(/C=C2\CCCC3=C2NC(C)=NC3c2cc(OC)c(OC)c(OC)c2)cc(OC)c1OC (stereo not drawn) | 1.18 µM | 3.91 µM
12 | CC1(C)N=C(N)N=C(N)N1c1ccc(OCc2ccc(S(=O)(=O)F)c(Cl)c2)c(Cl)c1 | 2.29 µM | > 100 µM
13 | Cc1ccc(C(=O)Nc2ccc(CN3CCN(C)CC3)c(C(F)(F)F)c2)cc1C#Cc1cnc(N)c2ccccc12 | 0.62 µM | 1.64 µM
14 | COC(=O)C12C3C4C1C1C2C3C41NC(=O)c1csc([C@@H](C[C@H](C(C)C)N(C)C(=O)[C@@H](NC(=O)[C@H]2CCCCN2C)C2CC2)OC(C)=O)n1 (stereo partly drawn) | 0.0198 µM | 31.5 µM
15 | Cc1c2cc(O)c(=O)cc-2oc2cc(O)c(O)cc12 | > 100 µM | > 100 µM
16 | CC[C@H](C)[C@H]1O[C@]2(C=C[C@@H]1C)C[C@@H]1C[C@@H](C/C=C(\C)[C@@H](O[C@H]3C[C@H](OC)[C@@H](O[C@H]4C[C@H](OC)[C@@H](NC)[C@H](C)O4)[C@H](C)O3)[C@@H](C)/C=C/C=C3\CO[C@@H]4[C@H](O)C(C)=C[C@@H](C(=O)O1)[C@]34O)O2 | 1.46 µM | 3.17 µM
17 | COc1ccc(OC)c(C(=O)c2oc3ccc(Br)cc3c2N)c1 | 0.206 µM | 5.22 µM
18 | Cc1ccc2c3c(c(=O)[nH]c2c1)C1(C(C#N)=C(N)O3)c2cc(Br)ccc2-c2ccc(Br)cc21 | 1.64 µM | 3.55 µM
19 | O=C1/C(=C/c2ccc(O)cc2)CSc2ccc(Cl)cc21 | 4.84 µM | 28 µM
20 | COc1ccc(-c2nnc(COc3ccc(NC(=O)Nc4ccc(Cl)c(C(F)(F)F)c4)cc3F)o2)cc1 | 2.27 µM | 8.6 µM

Row | Structure (SMILES) | GI50 | TGI
21 | Nc1nc(-c2cccc(Cl)c2)c(-c2ccc3ncccc3n2)s1 | > 15.7 µM | > 25 µM
22 | Cc1ccc(NC(=O)c2sc3nc(C)c(C(O)c4ccccc4)cc3c2N)cc1 (stereo not drawn) | 0.349 µM | 50.7 µM
23 | CCCCCN(CCCCC)CC(O)c1ccc(Cl)c2ccccc12 (stereo not drawn) | 11.1 µM | 24 µM
24 | O=S1(=O)N(CCNc2nccc(-c3c(-c4cccc(O)c4)nc4sccn34)n2)CCN1Cc1ccccc1 | 8.46 µM | 27.9 µM
25 | CN1CCN(c2ccc(Nc3nc(NCCCNS(=O)(=O)c4ccc(C(F)(F)F)cc4)c4sccc4n3)cc2)CC1 | 1.73 µM | 3.56 µM
26 | Cn1c2ccccc2c2c3[nH]c(=O)[nH]c(=O)c3c3c4ccccc4n(C)c3c21 | 3.51 µM | 29.1 µM
27 | CCOC(=O)c1c(C)nc2c(c1N)/C(=C/c1ccc(OC)cc1)C(=O)N2Cc1ccc(F)cc1 | 0.194 µM | 0.65 µM
28 | C/C(=N\Nc1ccc(Cl)cn1)c1ccccn1 | 0.0655 µM | 0.293 µM
29 | N#Cc1cccc(NC(=O)c2cc(-c3ccc(F)cc3F)ccc2O)c1 | 1.66 µM and 1.45 µM | 5.94 µM and 6.4 µM
30 | CCCn1cnc2c(c1=N)C(c1ccc(F)cc1)c1sc3c(C)cccc3c1O2 (stereo not drawn) | 1.29 µM | 19.2 µM
31 | CC(C)(C)c1cc(NC(=O)Cc2ccc(-c3cnc4cc(-c5cnn(CCN6CCOCC6)c5)ccc4n3)cc2)no1 | 0.7 µM and 0.796 µM and 0.111 µM | 50 µM and > 100 µM and > 3 µM
32 | CCc1oc2ccccc2c1C(=O)c1cc(I)c(O)c(I)c1 | 2.38 µM | 8.5 µM
33 | CC(C)(O)c1cncc(-c2ccc3ncc(C#N)c(N4CCc5cc(F)c(Cl)cc54)c3c2)c1 | 11.8 µM | 30.6 µM
34 | Cc1ccc(NC(=O)NCCCOc2ccc(N3C(N)=NC(N)=NC3(C)C)cc2Cl)cc1S(=O)(=O)F | 17.3 µM | > 100 µM
35 | COc1cc(NS(=O)(=O)c2ccc(-c3cnc(C4CC4)o3)cc2)ccc1F | 0.122 µM | 11.3 µM
36 | CCN(CC)CCCC(C)Nc1cnc(C(=O)Nc2cccc3ccc(OC)nc23)cn1 (stereo not drawn) | 1.58 µM | 3.19 µM
37 | C=C(C)C1CCC2(C(=O)O)CCC3(C)C(CCC4C5(C)CCC(OC(=O)NCc6ccccc6)C(C)(C)C5CCC43C)C12 (stereo not drawn) | 1.73 µM | 34.7 µM
38 | O=C(/C(=C/c1cccc([N+](=O)[O-])c1)c1ccccc1)c1ccccc1 | 2.7 µM | 8.8 µM
39 | C=C[C@H]1C[C@@H]2C[C@@H]3[C@H]4C/C=C\C(=O)NCCCC5NC(=O)C(=C(O)/C=C/[C@@H]4CC(=O)[C@H]3[C@@H]2[C@H]1C)C5=O (stereo partly drawn) | 1.59 µM | 3.09 µM
